Experimental data taken from patent US20230085307A1, “PYRIDAZINONE COMPOUND AND HERBICIDE” (NISSAN CHEMICAL CORPORATION, priority 2019, published 2023).

Key:
late watergrass [1] = assay: Test Example 1: herbicidal activity, application before weed generation under submerged conditions (Table 16, symbol A); format: in vivo, late watergrass (Echinochloa oryzicola); conditions: 320 g/ha applied herbicide
Method in brief: (§1)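 Emulsion formulation, water-diluted to set dose, was put onto the flooded surface (4 cm depth, alluvial soil) the same day weeds were sown and 2.5-leaf rice transplanted. After 3 weeks at 25-30 °C under glass, each species was rated 0 (≤5% kill) to 5 (≥90% kill).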

Japanese bulrush [2] = assay: Test Example 1: herbicidal activity, application before weed generation under submerged conditions (Table 16, symbol B); format: in vivo, Japanese bulrush (Schoenoplectus juncoides); conditions: 320 g/ha applied herbicide
Method in brief: as §1

oval-leafed pondweed [3] = assay: Test Example 1: herbicidal activity, application before weed generation under submerged conditions (Table 16, symbol C); format: in vivo, oval-leafed pondweed (Monochoria vaginalis); conditions: 320 g/ha applied herbicide
Method in brief: as §1

late watergrass [4] = assay: Test Example 2: herbicidal activity, application during weed generation under submerged conditions (Table 17, symbol A); format: in vivo, late watergrass (Echinochloa oryzicola); conditions: AAH 320 g/ha; application during weed generation, submerged conditions
Method in brief: (§2)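 Wagner pot, alluvial soil, 4 cm flood; mixed sowing of all species; greenhouse 25° C.–30° C. Emulsifiable formulation, water-diluted to predetermined dose, applied to paddy water at 1–2 leaf stage. Effect rated at 3 wk using the earlier test's scoring criteria.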

Japanese bulrush [5] = assay: Test Example 2: herbicidal activity, application during weed generation under submerged conditions (Table 17, symbol B); format: in vivo, Japanese bulrush (Schoenoplectus juncoides); conditions: AAH 320 g/ha; application during weed generation, submerged conditions
Method in brief: as §2

oval-leafed pondweed [6] = assay: Test Example 2: herbicidal activity, application during weed generation under submerged conditions (Table 17, symbol C); format: in vivo, oval-leafed pondweed (Monochoria vaginalis); conditions: AAH 320 g/ha; application during weed generation, submerged conditions
Method in brief: as §2

barnyard grass [7] = assay: Test Example 3: herbicidal effect by foliage application, Wagner pot (Table 18, symbol H); format: in vivo, barnyard grass (Echinochloa crus-galli)
Method in brief: (§3)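 Plants were sown in alluvial soil held under 0.1–0.5 cm standing water and grown 14 days in a greenhouse at 25–30 °C. An emulsifiable formulation, water-diluted to the set dose, was then sprayed onto the foliage, and effects were scored three weeks later using previously defined criteria.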

Chinese sprangletop = assay: Test Example 3: herbicidal effect by foliage application, Wagner pot (Table 18, symbol D); format: in vivo, chinese sprangletop (Leptochloa chinensis)
Method in brief: as §3

rice flat sedge = assay: Test Example 3: herbicidal effect by foliage application, Wagner pot (Table 18, symbol E); format: in vivo, rice flat sedge (Cyperus iria)
Method in brief: as §3

southern crabgrass [8] = assay: Test Example 4: herbicidal effect by soil treatment (Table 19, symbol F); format: in vivo, southern crabgrass (Digitaria ciliaris); conditions: amount of applied herbicide 320 g/ha
Method in brief: (§4)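 Pre-emergence style soil spray: seeds under ~1.5 cm sterilized diluvial soil received a uniform coat of emulsion diluted to the predetermined herbicide amount. Greenhouse 25–30° C; readout at week three on previously defined criteria.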

green foxtail [9] = assay: Test Example 4: herbicidal effect by soil treatment (Table 19, symbol G); format: in vivo, green foxtail (Setaria viridis); conditions: amount of applied herbicide 320 g/ha
Method in brief: as §4

barnyard grass [10] = assay: Test Example 4: herbicidal effect by soil treatment (Table 19, symbol H); format: in vivo, barnyard grass (Echinochloa crus-galli); conditions: amount of applied herbicide 320 g/ha
Method in brief: as §4

wild oat [11] = assay: Test Example 4: herbicidal effect by soil treatment (Table 19, symbol I); format: in vivo, wild oat (Avena fatua); conditions: amount of applied herbicide 320 g/ha
Method in brief: as §4

blackgrass [12] = assay: Test Example 4: herbicidal effect by soil treatment (Table 19, symbol J); format: in vivo, blackgrass (Alopecurus myosuroides); conditions: amount of applied herbicide 320 g/ha
Method in brief: as §4

Italian ryegrass [13] = assay: Test Example 4: herbicidal effect by soil treatment (Table 19, symbol K); format: in vivo, Italian ryegrass (Lolium multiflorum); conditions: amount of applied herbicide 320 g/ha
Method in brief: as §4

windgrass [14] = assay: Test Example 4: herbicidal effect by soil treatment (Table 19, symbol L); format: in vivo, windgrass (Apera spica-venti); conditions: amount of applied herbicide 320 g/ha
Method in brief: as §4

velvetleaf [15] = assay: Test Example 4: herbicidal effect by soil treatment (Table 19, symbol M); format: in vivo, velvetleaf (Abutilon theophrasti); conditions: amount of applied herbicide 320 g/ha
Method in brief: as §4

redroot pigweed = assay: Test Example 4: herbicidal effect by soil treatment (Table 19, symbol N); format: in vivo, redroot pigweed (Amaranthus retroflexus); conditions: amount of applied herbicide 320 g/ha
Method in brief: as §4

lambsquarters [16] = assay: Test Example 4: herbicidal effect by soil treatment (Table 19, symbol O); format: in vivo, lambsquarters (Chenopodium album); conditions: amount of applied herbicide 320 g/ha
Method in brief: as §4

chickweed = assay: Test Example 4: herbicidal effect by soil treatment (Table 19, symbol P); format: in vivo, common chickweed (Stellaria media); conditions: amount of applied herbicide 320 g/ha
Method in brief: as §4

persian speedwell [17] = assay: Test Example 4: herbicidal effect by soil treatment (Table 19, symbol R); format: in vivo, Persian speedwell (Veronica persica); conditions: amount of applied herbicide 320 g/ha
Method in brief: as §4

false cleavers = assay: Test Example 4: herbicidal effect by soil treatment (Table 19, symbol Q); format: in vivo, false cleavers (Galium spurium); conditions: amount of applied herbicide 320 g/ha
Text: [Test Example 4] Herbicidal Effect Test by Soil Treatment
Sterilized diluvial soil was placed in a plastic box having a length of 21 cm, a width of 13 cm, and a depth of 7 cm. The seeds of each of southern crabgrass, green foxtail, barnyard grass, wild oat, blackgrass, Italian ryegrass, windgrass, velvetleaf, redroot pigweed, lambsquarters, chickweed, false cleavers, persian speedwell, corn, soybean, rice, wheat, beet, and rapeseed were sowed in a spot-like manner and covered with the soil having a thickness of about 1.5 cm. Subsequently, the emulsion agent of the compound of the present invention prepared according to Formulation Example 2 was diluted with water so as to achieve a predetermined herbicide amount, and the diluted emulsion agent was uniformly applied to the surface of the soil with a small-sized spray. The plastic box was placed in a greenhouse at 25° C. to 30° C. for growth of the plants. Three weeks after the herbicide application, the effect of the herbicide on each plant was evaluated according to the criteria of Test Example 1.

southern crabgrass [18] = assay: Test Example 5: herbicidal effect by foliage application, plastic box (Table 20, symbol F); format: in vivo, southern crabgrass (Digitaria ciliaris); conditions: foliage application, 320 g/ha, three weeks after application
Method in brief: (§5)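 Plants were sown into sterilized diluvial soil under about 1.5 cm cover and kept in a greenhouse at 25° C. to 30° C. Fourteen days on, foliage received an even spray of the diluted emulsion. Herbicidal or crop effect was judged three weeks afterwards.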

green foxtail [19] = assay: Test Example 5: herbicidal effect by foliage application, plastic box (Table 20, symbol G); format: in vivo, green foxtail (Setaria viridis); conditions: foliage application, 320 g/ha, three weeks after application
Method in brief: as §5

barnyard grass [20] = assay: Test Example 5: herbicidal effect by foliage application, plastic box (Table 20, symbol H); format: in vivo, barnyard grass (Echinochloa crus-galli); conditions: foliage application, 320 g/ha, three weeks after application
Method in brief: as §5

wild oat [21] = assay: Test Example 5: herbicidal effect by foliage application, plastic box (Table 20, symbol I); format: in vivo, wild oat (Avena fatua); conditions: foliage application, 320 g/ha, three weeks after application
Method in brief: as §5

blackgrass [22] = assay: Test Example 5: herbicidal effect by foliage application, plastic box (Table 20, symbol J); format: in vivo, blackgrass (Alopecurus myosuroides); conditions: foliage application, 320 g/ha, three weeks after application
Method in brief: as §5

Italian ryegrass [23] = assay: Test Example 5: herbicidal effect by foliage application, plastic box (Table 20, symbol K); format: in vivo, Italian ryegrass (Lolium multiflorum); conditions: foliage application, 320 g/ha, three weeks after application
Method in brief: as §5

windgrass [24] = assay: Test Example 5: herbicidal effect by foliage application, plastic box (Table 20, symbol L); format: in vivo, windgrass (Apera spica-venti); conditions: foliage application, 320 g/ha, three weeks after application
Method in brief: as §5

velvetleaf [25] = assay: Test Example 5: herbicidal effect by foliage application, plastic box (Table 20, symbol M); format: in vivo, velvetleaf (Abutilon theophrasti); conditions: foliage application, 320 g/ha, three weeks after application
Method in brief: as §5

lambsquarters [26] = assay: Test Example 5: herbicidal effect by foliage application, plastic box (Table 20, symbol O); format: in vivo, lambsquarters (Chenopodium album); conditions: foliage application, 320 g/ha, three weeks after application
Method in brief: as §5

persian speedwell [27] = assay: Test Example 5: herbicidal effect by foliage application, plastic box (Table 20, symbol R); format: in vivo, Persian speedwell (Veronica persica); conditions: foliage application, 320 g/ha, three weeks after application
Method in brief: as §5

[28] = amount of applied herbicide 320 g/ha

In the case of `CCCC(=O)Oc1c(C)nn(C)c(=O)c1-c1c(-c2ccc(C(F)(F)F)cc2F)sc2ccc(F)cc12` [2-355], the “Herbicidal effect on A: late watergrass (grade 0-5)” value (late watergrass [1]) was 4 (Herbicidal rate of 70% or more and less than 90%), the “Herbicidal effect on B: Japanese bulrush (grade 0-5)” value (Japanese bulrush [2]) was 3 (Herbicidal rate of 40% or more and less than 70%) and the “Herbicidal effect on C: oval-leafed pondweed (grade 0-5)” value (oval-leafed pondweed [3]) was 0 (Herbicidal rate of 5% or less (almost no effect)). The “herbicidal effect rating, A: late watergrass” value (late watergrass [4]) was 3 (Herbicidal rate of 40% or more and less than 70%), the “herbicidal effect rating, B: Japanese bulrush” value (Japanese bulrush [5]) was 3 (Herbicidal rate of 40% or more and less than 70%) and the “herbicidal effect rating, C: oval-leafed pondweed” value (oval-leafed pondweed [6]) was 3 (Herbicidal rate of 40% or more and less than 70%). The “herbicidal effect on H: barnyard grass” value (barnyard grass [7]; [28]) was 5 (Herbicidal rate of 90% or more (almost completely withered)), the “herbicidal effect on D: Chinese sprangletop” value (Chinese sprangletop; [28]) was 5 (Herbicidal rate of 90% or more (almost completely withered)) and the “herbicidal effect on E: rice flat sedge” value (rice flat sedge; [28]) was 5 (Herbicidal rate of 90% or more (almost completely withered)). The “herbicidal effect, F: southern crabgrass” value (southern crabgrass [8]) was 0 (Herbicidal rate of 5% or less (almost no effect)), the “herbicidal effect, G: green foxtail” value (green foxtail [9]) was 0 (Herbicidal rate of 5% or less (almost no effect)) and the “herbicidal effect, H: barnyard grass” value (barnyard grass [10]) was 0 (Herbicidal rate of 5% or less (almost no effect)). The “herbicidal effect, I: wild oat” value (wild oat [11]) was 0 (Herbicidal rate of 5% or less (almost no effect)), the “herbicidal effect, J: blackgrass” value (blackgrass [12]) was 0 (Herbicidal rate of 5% or less (almost no effect)) and the “herbicidal effect, K: Italian ryegrass” value (Italian ryegrass [13]) was 4 (Herbicidal rate of 70% or more and less than 90%). The “herbicidal effect, L: windgrass” value (windgrass [14]) was 3 (Herbicidal rate of 40% or more and less than 70%), the “herbicidal effect, M: velvetleaf” value (velvetleaf [15]) was 0 (Herbicidal rate of 5% or less (almost no effect)) and the “herbicidal effect, N: redroot pigweed” value (redroot pigweed) was 0 (Herbicidal rate of 5% or less (almost no effect)). For the same compound, the “herbicidal effect, O: lambsquarters” value (lambsquarters [16]) was 3 (Herbicidal rate of 40% or more and less than 70%), the “herbicidal effect, P: chickweed” value (chickweed) was 3 (Herbicidal rate of 40% or more and less than 70%) and the “herbicidal effect, R: persian speedwell” value (persian speedwell [17]) was 3 (Herbicidal rate of 40% or more and less than 70%).

`Cc1nn(C)c(=O)c(-c2c(-c3ccc(Cl)cc3)sc3cc(F)c(F)cc23)c1O` [5-082] was tested, and the “herbicidal effect on barnyard grass (H)” value (barnyard grass [7]; 320 g/ha) was 5 (Herbicidal rate of 90% or more (almost completely withered)), the “herbicidal effect on Chinese sprangletop (D)” value (Chinese sprangletop; 320 g/ha) was 4 (Herbicidal rate of 70% or more and less than 90%) and the “herbicidal effect on rice flat sedge (E)” value (rice flat sedge; 320 g/ha) was 4 (Herbicidal rate of 70% or more and less than 90%). The “F: southern crabgrass, herbicidal effect grade” value (southern crabgrass [8]) was 0 (Herbicidal rate of 5% or less (almost no effect)), the “G: green foxtail, herbicidal effect grade” value (green foxtail [9]) was 1 (Herbicidal rate of 5% or more and less than 20%) and the “H: barnyard grass, herbicidal effect grade” value (barnyard grass [10]) was 0 (Herbicidal rate of 5% or less (almost no effect)). For the same compound, the “I: wild oat, herbicidal effect grade” value (wild oat [11]) was 0 (Herbicidal rate of 5% or less (almost no effect)), the “J: blackgrass, herbicidal effect grade” value (blackgrass [12]) was 0 (Herbicidal rate of 5% or less (almost no effect)) and the “K: Italian ryegrass, herbicidal effect grade” value (Italian ryegrass [13]) was 4 (Herbicidal rate of 70% or more and less than 90%). The “L: windgrass, herbicidal effect grade” value (windgrass [14]) was 4 (Herbicidal rate of 70% or more and less than 90%), the “M: velvetleaf, herbicidal effect grade” value (velvetleaf [15]) was 0 (Herbicidal rate of 5% or less (almost no effect)) and the “N: redroot pigweed, herbicidal effect grade” value (redroot pigweed) was 4 (Herbicidal rate of 70% or more and less than 90%). For the same compound, the “O: lambsquarters, herbicidal effect grade” value (lambsquarters [16]) was 3 (Herbicidal rate of 40% or more and less than 70%), the “Q: false cleavers, herbicidal effect grade” value (false cleavers) was 3 (Herbicidal rate of 40% or more and less than 70%) and the “herbicidal effect on southern crabgrass (F)” value (southern crabgrass [18]) was 3 (Herbicidal rate of 40% or more and less than 70%). The “herbicidal effect on green foxtail (G)” value (green foxtail [19]) was 3 (Herbicidal rate of 40% or more and less than 70%), the “herbicidal effect on barnyard grass (H)” value (barnyard grass [20]) was 4 (Herbicidal rate of 70% or more and less than 90%) and the “herbicidal effect on wild oat (I)” value (wild oat [21]) was 3 (Herbicidal rate of 40% or more and less than 70%). For the same compound, the “herbicidal effect on blackgrass (J)” value (blackgrass [22]) was 3 (Herbicidal rate of 40% or more and less than 70%), the “herbicidal effect on Italian ryegrass (K)” value (Italian ryegrass [23]) was 5 (Herbicidal rate of 90% or more (almost completely withered)) and the “herbicidal effect on windgrass (L)” value (windgrass [24]) was 5 (Herbicidal rate of 90% or more (almost completely withered)). The “herbicidal effect on velvetleaf (M)” value (velvetleaf [25]) was 5 (Herbicidal rate of 90% or more (almost completely withered)), the “herbicidal effect on lambsquarters (O)” value (lambsquarters [26]) was 5 (Herbicidal rate of 90% or more (almost completely withered)) and the “herbicidal effect on persian speedwell (R)” value (persian speedwell [27]) was 5 (Herbicidal rate of 90% or more (almost completely withered)).
